{
  "source": "ChEMBL document CHEMBL5465560",
  "about": "“Selectivity Literature for EUbOPEN Chemogenomic Library” (2024)",
  "key": {"[1]": {"target": "T1, Homeodomain-interacting protein kinase 4 (Homo sapiens) (UniProt Q8NE63)", "T1 sequence (whole entry)": "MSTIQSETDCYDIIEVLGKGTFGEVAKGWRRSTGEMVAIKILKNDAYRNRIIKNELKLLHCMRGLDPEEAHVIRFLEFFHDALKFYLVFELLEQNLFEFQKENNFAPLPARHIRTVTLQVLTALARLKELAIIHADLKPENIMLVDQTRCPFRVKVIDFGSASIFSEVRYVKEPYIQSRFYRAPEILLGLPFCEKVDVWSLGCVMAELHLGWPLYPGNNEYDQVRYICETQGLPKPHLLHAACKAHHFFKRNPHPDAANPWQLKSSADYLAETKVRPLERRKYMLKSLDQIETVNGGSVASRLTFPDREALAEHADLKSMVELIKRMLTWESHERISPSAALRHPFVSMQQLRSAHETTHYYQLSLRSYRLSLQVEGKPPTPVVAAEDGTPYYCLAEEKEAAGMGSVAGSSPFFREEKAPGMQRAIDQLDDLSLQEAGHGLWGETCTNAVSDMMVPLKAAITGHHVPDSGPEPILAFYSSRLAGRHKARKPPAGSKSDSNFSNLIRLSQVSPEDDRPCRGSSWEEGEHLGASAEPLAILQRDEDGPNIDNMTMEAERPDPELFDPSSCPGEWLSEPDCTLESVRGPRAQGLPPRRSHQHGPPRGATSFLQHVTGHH", "assay": "Selectivity interaction (Kinase panel (Invitrogen)) EUB0000639a HIPK4", "settings": "at 200 nM"}, "[2]": {"target": "Glycogen synthase kinase-3 beta (Homo sapiens, UniProt P49841)", "sequence (P49841 whole entry, looked up)": "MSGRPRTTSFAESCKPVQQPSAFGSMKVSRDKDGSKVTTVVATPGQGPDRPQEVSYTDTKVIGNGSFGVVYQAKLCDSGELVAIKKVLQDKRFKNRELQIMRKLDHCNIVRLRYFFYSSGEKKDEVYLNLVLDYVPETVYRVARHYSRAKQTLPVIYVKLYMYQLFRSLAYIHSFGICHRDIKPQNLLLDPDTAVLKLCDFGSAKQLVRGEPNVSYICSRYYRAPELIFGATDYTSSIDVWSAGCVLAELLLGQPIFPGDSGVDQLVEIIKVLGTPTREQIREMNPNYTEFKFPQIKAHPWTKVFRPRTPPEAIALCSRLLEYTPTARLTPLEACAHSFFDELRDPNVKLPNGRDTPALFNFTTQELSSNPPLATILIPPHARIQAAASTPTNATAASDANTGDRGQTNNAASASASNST", "assay": "Selectivity interaction (Upstate Kinase Profiler service (Millipore)) EUB0000056c GSK3B", "settings": "at 1 µM"}, "[3]": {"target": "Proto-oncogene tyrosine-protein kinase Src (Homo sapiens, UniProt P12931)", "sequence (P12931 2-536 limits assumed)": "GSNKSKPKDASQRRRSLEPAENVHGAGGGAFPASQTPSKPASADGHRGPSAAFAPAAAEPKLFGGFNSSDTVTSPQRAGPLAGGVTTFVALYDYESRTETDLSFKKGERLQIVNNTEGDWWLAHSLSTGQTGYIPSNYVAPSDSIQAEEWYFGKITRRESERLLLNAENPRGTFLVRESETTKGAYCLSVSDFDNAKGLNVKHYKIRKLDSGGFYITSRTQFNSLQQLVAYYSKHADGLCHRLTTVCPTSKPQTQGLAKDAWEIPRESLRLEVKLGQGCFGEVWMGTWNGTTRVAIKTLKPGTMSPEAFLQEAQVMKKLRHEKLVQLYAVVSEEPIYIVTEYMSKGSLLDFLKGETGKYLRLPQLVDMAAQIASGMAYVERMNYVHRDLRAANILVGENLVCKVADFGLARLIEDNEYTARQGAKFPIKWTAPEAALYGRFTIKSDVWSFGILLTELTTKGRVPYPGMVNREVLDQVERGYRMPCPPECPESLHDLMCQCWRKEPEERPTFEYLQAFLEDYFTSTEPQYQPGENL", "assay": "Selectivity interaction (Upstate Kinase Profiler service (Millipore)) EUB0000056c SRC", "settings": "at 1 µM"}, "[4]": {"tested_on": "Proto-oncogene tyrosine-protein kinase receptor Ret (Homo sapiens), P07949 [V804L]", "sequence (P07949 whole entry V804L)": "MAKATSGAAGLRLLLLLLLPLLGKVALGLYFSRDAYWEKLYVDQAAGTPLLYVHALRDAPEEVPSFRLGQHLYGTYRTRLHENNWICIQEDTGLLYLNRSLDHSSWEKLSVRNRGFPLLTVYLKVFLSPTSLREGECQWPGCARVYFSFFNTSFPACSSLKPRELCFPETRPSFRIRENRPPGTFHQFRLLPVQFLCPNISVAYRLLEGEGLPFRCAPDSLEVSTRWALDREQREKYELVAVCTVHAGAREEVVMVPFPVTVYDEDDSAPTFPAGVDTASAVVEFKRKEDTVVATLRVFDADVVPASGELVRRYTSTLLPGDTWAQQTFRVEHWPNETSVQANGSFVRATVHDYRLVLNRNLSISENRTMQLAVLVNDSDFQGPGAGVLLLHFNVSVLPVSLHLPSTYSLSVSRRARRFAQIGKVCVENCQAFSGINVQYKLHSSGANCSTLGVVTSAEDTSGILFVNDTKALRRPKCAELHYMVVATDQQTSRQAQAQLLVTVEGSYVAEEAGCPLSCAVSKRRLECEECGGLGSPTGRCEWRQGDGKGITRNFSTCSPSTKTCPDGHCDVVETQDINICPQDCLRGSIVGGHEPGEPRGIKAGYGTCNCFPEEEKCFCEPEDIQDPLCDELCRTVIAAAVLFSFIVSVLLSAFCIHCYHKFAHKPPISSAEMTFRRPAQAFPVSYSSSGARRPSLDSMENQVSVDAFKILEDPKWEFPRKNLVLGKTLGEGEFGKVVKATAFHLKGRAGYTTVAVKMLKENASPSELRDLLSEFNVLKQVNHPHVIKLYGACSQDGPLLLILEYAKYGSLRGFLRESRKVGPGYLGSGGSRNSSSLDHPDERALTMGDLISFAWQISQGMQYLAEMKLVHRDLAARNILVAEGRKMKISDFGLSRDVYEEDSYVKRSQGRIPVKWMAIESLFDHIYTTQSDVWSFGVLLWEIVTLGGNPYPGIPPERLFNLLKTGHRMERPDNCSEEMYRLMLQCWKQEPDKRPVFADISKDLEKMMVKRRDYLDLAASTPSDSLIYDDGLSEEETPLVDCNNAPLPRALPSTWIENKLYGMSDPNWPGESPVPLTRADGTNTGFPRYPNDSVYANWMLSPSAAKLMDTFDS", "assay": "(§1) Selectivity interaction (KinomeScan (DiscoverX)) EUB0000695a RET", "settings": "at 100 nM"}, "[5]": {"target": "Proto-oncogene tyrosine-protein kinase receptor Ret (Homo sapiens, UniProt P07949)", "sequence (P07949 whole entry)": "as the sequence (P07949 whole entry V804L) above, with L804V counted along it", "assay": "as §1", "settings": "at 100 nM"}, "[6]": {"tested_on": "Proto-oncogene tyrosine-protein kinase receptor Ret (Homo sapiens), P07949 [M918T]", "sequence (P07949 whole entry M918T)": "as the sequence (P07949 whole entry V804L) above, with L804V, M918T counted along it", "assay": "as §1", "settings": "at 100 nM"}, "[7]": {"tested_on": "Proto-oncogene tyrosine-protein kinase receptor Ret (Homo sapiens), P07949 [V804M]", "sequence (P07949 whole entry V804M)": "as the sequence (P07949 whole entry V804L) above, with L804M counted along it", "assay": "as §1", "settings": "at 100 nM"}, "[8]": {"target": "T2, Tyrosine-protein kinase JAK3 (Homo sapiens) (UniProt P52333)", "T2 sequence (whole entry)": "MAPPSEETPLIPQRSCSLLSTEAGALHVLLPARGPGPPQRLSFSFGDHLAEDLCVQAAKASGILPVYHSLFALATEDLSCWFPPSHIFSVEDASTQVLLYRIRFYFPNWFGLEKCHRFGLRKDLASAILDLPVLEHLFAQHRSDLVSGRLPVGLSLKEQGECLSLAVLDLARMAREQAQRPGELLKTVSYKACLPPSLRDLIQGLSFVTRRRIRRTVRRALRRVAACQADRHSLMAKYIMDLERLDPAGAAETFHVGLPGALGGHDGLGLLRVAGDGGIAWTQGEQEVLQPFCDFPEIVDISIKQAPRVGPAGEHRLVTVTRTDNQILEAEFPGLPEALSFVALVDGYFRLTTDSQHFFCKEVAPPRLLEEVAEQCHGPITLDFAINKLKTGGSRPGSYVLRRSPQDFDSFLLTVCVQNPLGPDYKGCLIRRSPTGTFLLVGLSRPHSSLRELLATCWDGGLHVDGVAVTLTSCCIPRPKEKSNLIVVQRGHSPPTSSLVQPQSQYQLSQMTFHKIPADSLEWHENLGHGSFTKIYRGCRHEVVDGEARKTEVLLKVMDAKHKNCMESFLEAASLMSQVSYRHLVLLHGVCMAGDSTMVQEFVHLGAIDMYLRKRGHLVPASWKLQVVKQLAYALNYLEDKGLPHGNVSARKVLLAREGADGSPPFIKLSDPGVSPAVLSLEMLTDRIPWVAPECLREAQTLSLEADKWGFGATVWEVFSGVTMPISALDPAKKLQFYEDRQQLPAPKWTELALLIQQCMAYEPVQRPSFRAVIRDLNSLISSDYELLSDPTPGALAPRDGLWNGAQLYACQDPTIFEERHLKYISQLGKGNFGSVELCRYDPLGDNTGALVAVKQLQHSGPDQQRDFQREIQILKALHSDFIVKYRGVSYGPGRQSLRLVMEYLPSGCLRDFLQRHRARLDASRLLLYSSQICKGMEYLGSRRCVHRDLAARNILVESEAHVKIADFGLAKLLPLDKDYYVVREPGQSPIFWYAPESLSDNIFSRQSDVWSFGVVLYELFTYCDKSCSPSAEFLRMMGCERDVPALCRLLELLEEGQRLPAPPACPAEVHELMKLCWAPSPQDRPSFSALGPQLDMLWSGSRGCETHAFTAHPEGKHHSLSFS", "assay": "Selectivity interaction (Kinase panel (Z-LYTE Assay)) EUB0001632a JAK3", "settings": "at 10 µM"}},
  "data": [
    {"smiles": "CC[C@@H]1[C@H](F)C(=O)N[C@@H]1COc1nccc2cc(C(N)=O)c(OC)cc12", "note": "[ZIMLOVISERTIB]", "values": [
      {"measurement": "% of inhibition", "setting": "[1]", "result": 5.27, "unit": "%"}
    ]},
    {"smiles": "Cc1ccc(-c2ccc3c(ccc4sc5c(c43)NC[C@@H](C)NC5=O)n2)cn1", "values": [
      {"measurement": "% of inhibition", "setting": "[2]", "result": 11, "unit": "%"},
      {"measurement": "% of inhibition", "setting": "[3]", "result": 12, "unit": "%"}
    ]},
    {"smiles": "Cc1cc(F)c(C(=O)Nc2cccc(-c3nncn3C(C)C)n2)cc1-n1cnc(C2CC2)c1", "values": [
      {"measurement": "% of control", "setting": "[4]", "result": 100, "unit": "%"},
      {"measurement": "% of control", "setting": "[5]", "result": 96, "unit": "%"},
      {"measurement": "% of control", "setting": "[6]", "result": 100, "unit": "%"},
      {"measurement": "% of control", "setting": "[7]", "result": 98, "unit": "%"}
    ]},
    {"smiles": "Cn1cc(-n2cnc3c(NCc4nc5cc(Cl)c(Cl)cc5[nH]4)nc(N4CCOCC4)nc32)cn1", "values": [
      {"measurement": "% of control", "setting": "[8]", "result": 16.9, "unit": "%"}
    ]}
  ]
}
